Reference: patent publication US20100267561A1, “HERBICIDAL PYRIDAZINONE DERIVATIVES” (priority 2007, published 2010)

Key:
Test in all cases: Test B pre-/postemergence plant response
Type in all cases: in vivo
[1] = test system: blackgrass (Alopecurus myosuroides)
In short: (§1)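 Preemergence and postemergence (plants 2-18 cm, 1- to 4-leaf stage) applications used test chemicals in a non-phytotoxic solvent with surfactant. Plants were held in a greenhouse 13 to 15 days, then rated visually against controls on a 0-100 scale (0 no effect, 100 complete control).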

[2] = test system: catchweed bedstraw (Galium aparine); conditions: Preemergence
In short: as §1

[3] = test system: common ragweed (Ambrosia elation)
In short: as §1

[4] = test system: corn (Zea mays)
In short: as §1

[5] = test system: downy bromegrass (Bromus tectorum)
In short: as §1

[6] = test system: giant foxtail (Setaria faberii)
In short: as §1

[7] = test system: goosegrass (Eleusine indica)
In short: as §1

[8] = test system: green foxtail (Setaria viridis)
In short: as §1

[9] = test system: lambsquarters (Chenopodium album)
In short: as §1

[10] = test system: morningglory (Ipomoea coccinea)
In short: as §1

[11] = test system: pigweed (Amaranthus retroflexus)
In short: as §1

[12] = test system: surinam grass (Brachiaria decumbens)
In short: as §1

[13] = test system: wild oat (Avena fatua)
In short: as §1

[14] = test system: woolly cupgrass (Eriochloa villosa)
In short: as §1

[15] = Postemergence, 31 g ai/ha, scale 0 to 100, 0 no effect, 100 complete control
[16] = Postemergence, 62 g ai/ha, scale 0 to 100
[17] = Postemergence, 125 g ai/ha, scale 0 to 100
[18] = Postemergence, 250 g ai/ha, scale 0 to 100
[19] = Preemergence, 31 g ai/ha, 0 to 100 scale, 0 no effect, 100 complete control
[20] = Preemergence, 62 g ai/ha, scale 0 to 100
[21] = Preemergence, 125 g ai/ha, scale 0 to 100
[22] = Preemergence, 250 g ai/ha, scale 0 to 100

Cc1nn(C)c(=O)c(-n2nc(-c3ccc(Cl)cc3)cc2C)c1O [Compound 15]
Blackgrass plant response rating ([1]; 250 g ai/ha, preemergence, 0-100 scale): 100
Plant response rating, Blackgrass [1, 15]: 90
Plant response rating, Blackgrass [1, 16]: 95
Plant response rating, Blackgrass [1, 17]: 95
Plant response rating, Blackgrass [1, 18]: 98
Plant response rating, Blackgrass [1, 19]: 100
Plant response rating, Blackgrass [1, 20]: 100
Plant response rating, Blackgrass [1, 21]: 100
Plant response rating, Galium ([2]; 31 g ai/ha, 0 to 100 scale, 0 no effect, 100 complete control): 0
Plant response rating, Galium ([2]; 62 g ai/ha, scale 0 to 100): 0
Plant response rating, Galium ([2]; 125 g ai/ha, scale 0 to 100): 10
Plant response rating, Galium ([2]; 250 g ai/ha, scale 0 to 100): 100
Plant response rating, Ragweed [3, 15]: 0
Plant response rating, Ragweed [3, 16]: 0
Plant response rating, Ragweed [3, 17]: 0
Plant response rating, Ragweed [3, 18]: 40
Plant response rating, Ragweed [3, 19]: 0
Plant response rating, Ragweed [3, 20]: 0
Plant response rating, Ragweed [3, 21]: 0
Plant response rating, Ragweed [3, 22]: 0
Plant response rating, Corn [4, 15]: 90
Plant response rating, Corn [4, 16]: 95
Plant response rating, Corn [4, 17]: 95
Plant response rating, Corn [4, 19]: 50
Plant response rating, Corn [4, 20]: 98
Plant response rating, Corn [4, 21]: 100
Plant response rating, Corn [4, 22]: 100
Plant response rating, Bromegrass, Downy [5, 15]: 10
Plant response rating, Bromegrass, Downy [5, 16]: 15
Plant response rating, Bromegrass, Downy [5, 17]: 45
Plant response rating, Bromegrass, Downy [5, 18]: 60
Plant response rating, Bromegrass, Downy [5, 19]: 50
Plant response rating, Bromegrass, Downy [5, 20]: 55
Plant response rating, Bromegrass, Downy [5, 21]: 90
Plant response rating, Bromegrass, Downy ([5]; Preemergence, 250 g ai/ha, scale 0 to 100 (0 no effect, 100 complete control)): 98
Plant response rating, Foxtail, Giant [6, 15]: 95
Plant response rating, Foxtail, Giant [6, 16]: 100
Plant response rating, Foxtail, Giant [6, 17]: 100
Plant response rating, Foxtail, Giant [6, 18]: 100
Plant response rating, Foxtail, Giant [6, 19]: 90
Plant response rating, Foxtail, Giant [6, 20]: 100
Plant response rating, Foxtail, Giant [6, 21]: 100
Plant response rating, Foxtail, Giant [6, 22]: 100
Plant response rating, Goosegrass [7, 15]: 45
Plant response rating, Goosegrass [7, 16]: 60
Plant response rating, Goosegrass [7, 17]: 90
Plant response rating, Goosegrass [7, 18]: 100
Plant response rating, Goosegrass [7, 19]: 0
Plant response rating, Goosegrass [7, 20]: 90
Plant response rating, Goosegrass [7, 21]: 90
Plant response rating, Goosegrass [7, 22]: 100
Plant response rating, Foxtail, Green [8, 15]: 95
Plant response rating, Foxtail, Green [8, 16]: 95
Plant response rating, Foxtail, Green [8, 17]: 100
Plant response rating, Foxtail, Green [8, 18]: 100
Plant response rating, Foxtail, Green [8, 19]: 100
Plant response rating, Foxtail, Green [8, 20]: 100
Plant response rating, Foxtail, Green [8, 21]: 100
Plant response rating, Foxtail, Green [8, 22]: 100
Plant response rating, Lambsquarters [9, 15]: 0
Plant response rating, Lambsquarters [9, 16]: 0
Plant response rating, Lambsquarters [9, 17]: 0
Plant response rating, Lambsquarters [9, 18]: 0
Plant response rating, Lambsquarters [9, 19]: 0
Plant response rating, Lambsquarters [9, 20]: 0
Plant response rating, Lambsquarters [9, 21]: 0
Plant response rating, Lambsquarters [9, 22]: 0
Plant response rating, Morningglory [10, 15]: 0
Plant response rating, Morningglory [10, 16]: 0
Plant response rating, Morningglory [10, 17]: 0
Plant response rating, Morningglory [10, 18]: 0
Plant response rating, Morningglory [10, 19]: 0
Plant response rating, Morningglory [10, 21]: 0
Plant response rating, Pigweed [11, 15]: 0
Plant response rating, Pigweed [11, 16]: 0
Plant response rating, Pigweed [11, 17]: 0
Plant response rating, Pigweed [11, 18]: 0
Plant response rating, Pigweed [11, 19]: 0
Plant response rating, Pigweed [11, 20]: 0
Plant response rating, Pigweed [11, 21]: 0
Plant response rating, Pigweed [11, 22]: 0
Plant response rating, Surinam Grass [12, 15]: 100
Plant response rating, Surinam Grass [12, 16]: 100
Plant response rating, Surinam Grass [12, 17]: 100
Plant response rating, Surinam Grass [12, 18]: 100
Plant response rating, Surinam Grass [12, 19]: 100
Plant response rating, Surinam Grass [12, 20]: 100
Plant response rating, Surinam Grass [12, 21]: 100
Plant response rating, Surinam Grass [12, 22]: 100
Plant response rating, Oat, Wild [13, 15]: 95
Plant response rating, Oat, Wild [13, 16]: 98
Plant response rating, Oat, Wild [13, 17]: 98
Plant response rating, Oat, Wild [13, 18]: 100
Plant response rating, Oat, Wild [13, 19]: 10
Plant response rating, Oat, Wild [13, 20]: 70
Plant response rating, Oat, Wild [13, 21]: 80
Plant response rating, Oat, Wild [13, 22]: 85
Plant response rating, Cupgrass, Woolly [14, 16]: 100
Plant response rating, Cupgrass, Woolly [14, 17]: 100
Plant response rating, Cupgrass, Woolly [14, 18]: 100
Plant response rating, Cupgrass, Woolly [14, 19]: 60
Plant response rating, Cupgrass, Woolly [14, 20]: 85
Plant response rating, Cupgrass, Woolly [14, 21]: 90
Plant response rating, Cupgrass, Woolly [14, 22]: 98
